From patent US20060069123A1, “Substituted dipiperidine CCR2 antagonists” (priority 2004, published 2006) come the findings set out here.

Molecules are shown by their SMILES. Read-outs that look alike come from different tables or passages of the source.

The subject of assay [1] is THP-1 cells. Briefly: MCP-1 Induced Chemotaxis in THP-1 Cells. Format: cell-based. To be noted: Homo sapiens, THP-1 cells, MCP-1 0.01 μg/mL, 3 hours, read-out: Inhibition of MCP-1 Induced Chemotaxis IC50.
The next assay concerns the target T1, CCR2 (Homo sapiens, UniProt P41597).
T1 sequence (P41597 1-360 isoform P41597-2): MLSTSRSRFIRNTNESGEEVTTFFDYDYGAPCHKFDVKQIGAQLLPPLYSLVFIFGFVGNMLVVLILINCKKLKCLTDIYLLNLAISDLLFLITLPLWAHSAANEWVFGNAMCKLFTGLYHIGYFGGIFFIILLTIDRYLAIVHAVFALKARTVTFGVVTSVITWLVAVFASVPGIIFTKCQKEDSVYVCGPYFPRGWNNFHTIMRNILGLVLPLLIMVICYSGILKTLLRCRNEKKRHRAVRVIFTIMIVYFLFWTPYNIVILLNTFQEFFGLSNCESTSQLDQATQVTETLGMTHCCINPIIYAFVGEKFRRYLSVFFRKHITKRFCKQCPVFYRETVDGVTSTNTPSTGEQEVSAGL

For assay [2], the system named is THP-1 cells. To be noted: Homo sapiens.
[3] abbreviates: THP-1, read-out: Inhibition of MCP-1 Induced Calcium Ion Influx IC50.

Consider `O=C(/C=C/c1ccc(F)c(F)c1)N1CCC(C(CO)N2CCC(c3c[nH]c4ccccc34)CC2)CC1` (stereo not drawn) [Cpd 113, (2E)-3-(3,4-difluoro-phenyl)-1-(4-{2-hydroxy-1-[4-(1H-indol-3-yl)-piperidin-1-yl]-ethyl}-piperidin-1-yl)-propenone], for which the IC50 with THP-1 cells [1] (THP-1, 3 h) is 95 nM; on CCR2 (Inhibition of MCP-1 Binding IC50, 125I labeled MCP-1 binding to CCR2, THP-1 cells) it was 6 nM; in the assay with THP-1 cells [2] (THP-1, read-out: Inhibition of MCP-1 Induced Calcium Ion Influx IC50, THP-1 cells, 0.2 μM MCP-1, FLIPR) it was 1 nM.

For `CS(=O)(=O)Nc1ccc2[nH]cc(C3CCN(C(CO)C4CCN(C(=O)/C=C/c5ccc(Cl)c(Cl)c5)CC4)CC3)c2c1` (stereo not drawn) [Cpd 198, N-{3-[1-(1-{1-[(2E)-3-(3,4-dichloro-phenyl)-acryloyl]-piperidin-4-yl}-2-hydroxy-ethyl)-piperidin-4-yl]-1H-indol-5-yl}-methanesulfonamide], the IC50 in the assay with THP-1 cells [1] stood at 0.2 nM; on CCR2, 0.6 nM; in the assay on THP-1 cells [2] (setting [3]), 0.02 nM.

`COc1ccc2[nH]cc(C3CCN(C(CO)C4CCN(C(=O)/C=C/c5cc(F)c(F)c(F)c5)CC4)CC3)c2c1` (stereo not drawn) [Cpd 166, (2E)-1-(4-{2-hydroxy-1-[4-(5-methoxy-1H-indol-3-yl)-piperidin-1-yl]-ethyl}-piperidin-1-yl)-3-(3,4,5-trifluoro-phenyl)-propenone]: the IC50 with THP-1 cells [1] was found to be 30 nM; at CCR2 it was 6 nM; in the assay on THP-1 cells [2] (setting [3]), 8 nM.

With `Cc1cc(C)cc(NC(=O)N2CCC(C(C(=O)O)N3CCC(c4c[nH]c5ccccc45)CC3)CC2)c1` (stereo not drawn) [Cpd 135, [1-(3,5-dimethyl-phenylcarbamoyl)-piperidin-4-yl]-[4-(1H-indol-3-yl)-piperidin-1-yl]-acetic acid], the IC50 in the assay on THP-1 cells [1] worked out at 770 nM; against CCR2, 940 nM; in the assay with THP-1 cells [2] (setting [3]) it was 7100 nM.

On to `COc1ccc2c(C3CCN(C(CO)C4CCN(C(=O)/C=C/c5ccc(Cl)c(Cl)c5)CC4)CC3)c[nH]c2c1` (stereo not drawn) [Cpd 163, (2E)-3-(3,4-dichloro-phenyl)-1-(4-{2-hydroxy-1-[4-(6-methoxy-1H-indol-3-yl)-piperidin-1-yl]-ethyl}-piperidin-1-yl)-propenone], for which the values for the IC50 in the assay with THP-1 cells [1], on CCR2 and in the assay with THP-1 cells [2] (setting [3]) were 150 nM, 30 nM and 10 nM, respectively.

On to `O=C(O)C(C1CCN(C(=O)Nc2cccc(F)c2)CC1)N1CCC(c2c[nH]c3ccccc23)CC1` (stereo not drawn) [Cpd 91, [1-(3-fluoro-phenylcarbamoyl)-piperidin-4-yl]-[4-(1H-indol-3-yl)-piperidin-1-yl]-acetic acid], for which the IC50 in the assay with THP-1 cells [1] was found to be 270 nM; against CCR2 it was 305 nM; with THP-1 cells [2] (setting [3]) it was 890 nM.

Regarding `O=C(O)C(C1CCN(C(=O)Nc2ccc(SC(F)(F)F)cc2)CC1)N1CCC(c2c[nH]c3ccccc23)CC1` (stereo not drawn) [Cpd 142, [4-(1H-indol-3-yl)-piperidin-1-yl]-[1-(4-trifluoromethylsulfanyl-phenylcarbamoyl)-piperidin-4-yl]-acetic acid], the figures for the IC50 with THP-1 cells [1], against CCR2 and in the assay on THP-1 cells [2] (setting [3]) were 60 nM, 5 nM and 30 nM, respectively.

As to `O=C(/C=C/c1cc(F)cc(F)c1)N1CCC(C(CO)N2CCC(c3ccncc3)CC2)CC1` (stereo not drawn) [Cpd 182, (2E)-3-(3,5-difluoro-phenyl)-1-{4-[2-hydroxy-1-(3,4,5,6-tetrahydro-2H-[4,4′]bipyridinyl-1-yl)-ethyl]-piperidin-1-yl}-propenone], the values for the IC50 in the assay with THP-1 cells [1], on CCR2 and in the assay on THP-1 cells [2] (setting [3]) were 350 nM, 330 nM and 7870 nM, respectively.

Consider `O=C(/C=C/c1cc(F)cc(F)c1)N1CCC(C(CO)N2CCC(c3c[nH]c4ccccc34)CC2)CC1` (stereo not drawn) [Cpd 116, (2E)-3-(3,5-difluoro-phenyl)-1-(4-{2-hydroxy-1-[4-(1H-indol-3-yl)-piperidin-1-yl]-ethyl}-piperidin-1-yl)-propenone], for which the values for the IC50 in the assay with THP-1 cells [1], against CCR2 and in the assay on THP-1 cells [2] (setting [3]) were 0.4 nM, 0.6 nM and 2 nM, respectively.

Regarding `Cc1ccc(NC(=O)N2CCC(C(C(=O)O)N3CCC(c4c[nH]c5ccccc45)CC3)CC2)cc1C(F)(F)F` (stereo not drawn) [Cpd 106, [4-(1H-indol-3-yl)-piperidin-1-yl]-[1-(4-methyl-3-trifluoromethyl-phenylcarbamoyl)-piperidin-4-yl]-acetic acid], the IC50 in the assay with THP-1 cells [1] stood at 210 nM; against CCR2 it was 20 nM; in the assay on THP-1 cells [2] (setting [3]), 110 nM.

As to `COc1ccc2[nH]cc(C3CCN(C(CO)C4CCN(C(=O)/C=C/c5cc(F)cc(F)c5)CC4)CC3)c2c1` (stereo not drawn) [Cpd 164, (2E)-3-(3,5-difluoro-phenyl)-1-(4-{2-hydroxy-1-[4-(5-methoxy-1H-indol-3-yl)-piperidin-1-yl]-ethyl}-piperidin-1-yl)-propenone], the figures for the IC50 in the assay on THP-1 cells [1], on CCR2 and in the assay with THP-1 cells [2] (setting [3]) were 40 nM, 10 nM and 9 nM, respectively.

As for `CC(=O)OCC(C1CCN(C(=O)/C=C/c2cc(F)c(F)c(F)c2)CC1)N1CCC(c2c[nH]c3ccccc23)CC1` (stereo not drawn) [Cpd 236, acetic acid 2-[4-(1H-indol-3-yl)-piperidin-1-yl]-2-{1-[(2E)-3-(3,4,5-trifluoro-phenyl)-acryloyl]-piperidin-4-yl}-ethyl ester], the results for the IC50 with THP-1 cells [1], against CCR2 and in the assay with THP-1 cells [2] (setting [3]) were 20 nM, 20 nM and 30 nM, respectively.

For `O=C(/C=C/c1ccc([N+](=O)[O-])cc1)OCC(C1CCN(C(=O)/C=C/c2ccc([N+](=O)[O-])cc2)CC1)N1CCC(c2c[nH]c3ccccc23)CC1` (stereo not drawn) [Cpd 251, (2E)-3-(4-nitro-phenyl)-acrylic acid 2-[4-(1H-indol-3-yl)-piperidin-1-yl]-2-{1-[(2E)-3-(4-nitro-phenyl)-acryloyl]-piperidin-4-yl}-ethyl ester], the results for the IC50 with THP-1 cells [1], at CCR2 and with THP-1 cells [2] (setting [3]) were 170 nM, 390 nM and 560 nM, respectively.

Turning to `COc1ccc(C2CCN(C(CO)C3CCN(C(=O)/C=C/c4cc(F)cc(F)c4)CC3)CC2)cc1` (stereo not drawn) [Cpd 137, (2E)-3-(3,5-difluoro-phenyl)-1-(4-{2-hydroxy-1-[4-(4-methoxy-phenyl)-piperidin-1-yl]-ethyl}-piperidin-1-yl)-propenone], the values for the IC50 in the assay on THP-1 cells [1], at CCR2 and in the assay with THP-1 cells [2] (setting [3]) were 80 nM, 30 nM and 210 nM, respectively.

Turning to `CS(=O)(=O)Nc1ccc2[nH]cc(C3CCN(C(CO)C4CCN(C(=O)/C=C/c5cc(F)c(F)c(F)c5)CC4)CC3)c2c1` (stereo not drawn) [Cpd 201, N-{3-[1-(2-hydroxy-1-{1-[(2E)-3-(3,4,5-trifluoro-phenyl)-acryloyl]-piperidin-4-yl}-ethyl)-piperidin-4-yl]-1H-indol-5-yl}-methanesulfonamide], the values for the IC50 in the assay with THP-1 cells [1], at CCR2 and in the assay with THP-1 cells [2] (setting [3]) were 3 nM, 1 nM and 0.6 nM, respectively.

As to `COc1ccc(C2CCN(C(CO)C3CCN(C(=O)Nc4ccc(F)c(F)c4)CC3)CC2)cc1` (stereo not drawn) [Cpd 141, 4-{2-hydroxy-1-[4-(4-methoxy-phenyl)-piperidin-1-yl]-ethyl}-piperidine-1-carboxylic acid (3,4-difluoro-phenyl)-amide], the values for the IC50 with THP-1 cells [1], on CCR2 and in the assay with THP-1 cells [2] (setting [3]) were 760 nM, 340 nM and 6900 nM, respectively.

Turning to `COc1ccc(C2CCN(C(CO)C3CCN(C(=O)/C=C/c4ccccc4)CC3)CC2)cc1` (stereo not drawn) [Cpd 159, (2E)-1-(4-{2-hydroxy-1-[4-(4-methoxy-phenyl)-piperidin-1-yl]-ethyl}-piperidin-1-yl)-3-phenyl-propenone], the IC50 in the assay on THP-1 cells [1] came to 860 nM; against CCR2, 270 nM; in the assay on THP-1 cells [2] (setting [3]) it was 2100 nM.

On to `COc1ccc(C2CCN([C@@H](CO)C3CCN(C(=O)/C=C/c4cc(F)cc(F)c4)CC3)CC2)cc1` [Cpd 181, (2E)-3-(3,5-difluoro-phenyl)-1-(4-{(1R)-2-hydroxy-1-[4-(4-methoxy-phenyl)-piperidin-1-yl]-ethyl}-1-piperidin-1-yl)-propenone], for which the IC50 with THP-1 cells [1] turned out to be 70 nM; against CCR2, 40 nM; in the assay with THP-1 cells [2] (setting [3]), 160 nM.

On to `COc1ccc2c(C3CCN(C(CO)C4CCN(C(=O)/C=C/c5cc(F)cc(F)c5)CC4)CC3)c[nH]c2c1` (stereo not drawn) [Cpd 165, (2E)-3-(3,5-difluoro-phenyl)-1-(4-{2-hydroxy-1-[4-(6-methoxy-1H-indol-3-yl)-piperidin-1-yl]-ethyl}-piperidin-1-yl)-propenone], for which the IC50 in the assay on THP-1 cells [1] stood at 25 nM; at CCR2, 80 nM; in the assay on THP-1 cells [2] (setting [3]) it was 110 nM.

As to `O=C(/C=C/c1cc(F)c(F)c(F)c1)N1CCC(C(CO)N2CCC(c3nc4ccccc4[nH]3)CC2)CC1` (stereo not drawn) [Cpd 175, (2E)-1-(4-{1-[4-(1H-benzoimidazol-2-yl)-piperidin-1-yl]-2-hydroxy-ethyl}-piperidin-1-yl)-3-(3,4,5-trifluoro-phenyl)-propenone], the IC50 in the assay with THP-1 cells [1] was determined as 300 nM; at CCR2 it was 188 nM; with THP-1 cells [2] (setting [3]) it was 2300 nM.

On to `O=C(/C=C/c1ccc(Cl)c(Cl)c1)N1CCC(C(CO)N2CCC(c3c[nH]c4ccc(F)cc34)CC2)CC1` (stereo not drawn) [Cpd 168, (2E)-3-(3,4-dichloro-phenyl)-1-(4-{1-[4-(5-fluoro-1H-indol-3-yl)-piperidin-1-yl]-2-hydroxy-ethyl}-piperidin-1-yl)-propenone], for which the values for the IC50 in the assay on THP-1 cells [1], against CCR2 and in the assay with THP-1 cells [2] (setting [3]) were 40 nM, 20 nM and 10 nM, respectively.
